# Measured values published in US20250314665A1, “BIOMARKERS FOR CEREBRAL METABOLIC DISORDERS, AND DIAGNOSTIC METHODS USING THEREOF” (COMMISSARIAT A L'ENERGIE ATOMIQUE ET AUX ENERGIES …, priority 2022, published 2025).
# Entries after “also recorded” stand apart in the source; their conditions may differ.
# Tests used:
# Assay type in all cases: in vivo, mouse
# [1] = test system: CrT KO mice; test: Object recognition test (ORT) in DCE-treated CrT KO mice
# Description: (§1) Treatment continued during behavioral testing, which took two weeks, for a total of 30 days of treatment. The testing order for behavioral assessment performed in the same mice consisted of: object recognition test (ORT) 24 h (3 days), Y maze (1 day), Morris water maze (MWM) with hidden platform (7 days).
# The day before testing, mice were familiarized with the empty arena for 10 min. The object recognition test (ORT), which is based on the spontaneous tendency of rodents to spend more time exploring a novel object than a familiar one, measures short- and long-term memory and consists of a sample and a testing phase. During the sample phase, mice were placed in the arena with two identical objects placed in diagonally opposite corners of the arena (about 6 cm from the walls) for 10 min. The test phase was 24 hours after the sample phase. Mice were returned to the arena with an identical copy of one of the familiar objects and a new object placed in the same position. The mice explored the objects for 5 min.
# (§2) DCE was intranasally administered (Ullio-Gamboa G, et al. Dodecyl creatine ester-loaded nanoemulsion as a promising therapy for creatine transporter deficiency. Nanomedicine 14, 1579-1593 (2019)) to Slc6a8^−/y for 30 days, once a day at 4 mg/g of body weight, whilst the control groups were wild-type (WT) and vehicle-treated (Veh) Slc6a8^−/y mice, at N=8/group. Cognitive performance was evaluated using the object recognition test, the Y-maze, and the Morris water maze (MWM). Then, proteomics was performed on four different brain regions: cortex, hippocampus, cerebellum and brainstem; and the key protein abundances were correlated with behavioral performance, identifying several mechanistic pathways.
# [2] = test system: CrT KO mice; test: Western blotting of dissected brain tissue after DCE treatment
# Description: Western blotting was used to detect the abundance of PLCB1 and the two inhibitors of NFkB, IKBα and IKBβ, in the dissected brain tissue. Briefly, brain tissue was homogenized in freshly prepared lysis buffer containing 20 mM Trizma-Base, 150 mM NaCl, pH 7.4 (Sigma-Aldrich, Saint-Quentin Fallavier, France) and supplemented with 1% Triton X-100, 4% of complete Protease Inhibitor Cocktail and 20% of a mix of anti-phosphatase inhibitors using a Precellys Evolution tissue homogenizer. The samples were then centrifuged first at 2500×g (15 min) and then at 10 000×g (20 min) on homogenates to produce lysate for electrophoresis. Proteins (10 to 20 μg) and protein standard in Laemmli buffer were loaded on 4%-15% CRITERION TGX STAIN-FREE protein gel in running buffer TGS 1×(all from Bio-Rad, Marnes-la-Coquette, France) and transferred to a 0.2 μm PVDF membrane with the Trans-Blot Turbo RTA Midi Transfer Kit (Bio-Rad, Marnes-la-Coquette, France). Membranes were blocked for 30 min in 5% low-fat milk in TBS-Tween 20 0.1% at room temperature. Blots were probed with specific primary antibodies overnight at 4° C. and detected by horseradish peroxidase secondary antibodies diluted 1:5 000 or 1:50 000 in 5% low-fat milk in TBS-Tween 20 0.1% at room temperature. For protein detection, membranes were exposed to the ECL prime Western blotting system (Amersham, UK) or Clarity western ECL substrate in a chemidoc touch imaging system for a measurable exposure time (Bio-Rad, Marnes-la-Coquette, France) and quantified with Image Lab Software (Bio-Rad, Marnes-la-Coquette, France). The following antibodies and dilutions were used: anti-PLCB1 (1/1000, Abcam, ab182359), anti-IKBα (1/500, Cell Signaling Technology, 4812S), anti-IKBβ (1/500, Cell Signaling Technology, 15519S), anti-PSD95 (1/2000, Merck, MABN68), and anti-tubulin (1/2000, Sigma-Aldrich, T6199), anti-KIF1A (1/1000, Abcam, ab180153).
# as §2
# [3] = test system: CrT KO mice; test: Y maze spontaneous alternation in DCE-treated CrT KO mice
# Description: as §1
# Mice were placed in the center of the maze and movement was recorded for 8 min. The number of arm entries (all four limbs within the arm) and the number of triads (three arm entries) were video-recorded in order to calculate the alternation percentage defined as the number of triads divided by the number of possible alternations (total arm entries minus 2) and then multiplying by 100.
# as §2
# [4] = test system: CrT KO mice; test: Morris water maze (MWM) in DCE-treated CrT KO mice; conditions: DCE intranasal 4 mg/g once a day; hidden platform, 7 days
# Description: as §1
# Mice were trained for 4 trials per day and for a total of 7 days in a circular water tank (diameter, 120 cm; height, 40 cm), filled with water (23° C.) rendered opaque by the addition of a non-toxic white paint to a depth of 25 cm. […] Mice were allowed up to 60 s to reach the escape platform, and their swimming paths were automatically recorded by the Noldus Ethovision system. On the last trial of the last training day, mice received a probe trial, during which the escape platform was removed from the tank and the swimming paths were recorded over 60 s while mice searched for the missing platform
# as §2, with “Then, proteomics was performed on four different brain regions: cortex, hippocampus, cerebellum and brainstem; and the key protein abundances were correlated with behavioral performance, identifying several mechanistic pathways.” left out
# [5] = test system: CrT KO mice; test: Label-free shotgun proteomics of brain regions after DCE treatment
# Description: Total protein (15 μg) was extracted from different brain regions and mixed with lithium dodecyl sulfate lysis buffer (Invitrogen) and incubated at 99° C. for 5 min, and then separated by a short electrophoresis migration (5 min) at 200 V on NuPAGE 4-12% Bis-Tris gel with MES/SDS 1× (Invitrogen) as running buffer. Gels were stained with SimplyBlue SafeStain (Thermo) for 5 min followed by an overnight wash in water with gentle agitation. The polyacrylamide band containing the whole proteome from each sample was excised and treated as recommended (Hartmann E M, Armengaud J. N-terminomics and proteogenomics, getting off to a good start. Proteomics 14, 2637-2646 (2014)). Proteins were in-gel proteolyzed with trypsin gold (Promega) in the presence of 0.01% of Protease Max surfactant (Promega) at 50° C. for 60 min. From the resulting peptide fraction (50 μL), a volume of 1 μL corresponding to approximately 300 ng of peptides was analyzed by liquid chromatography-tandem mass spectrometry (LC-MS/MS) using an Ultimate 3000 nano-LC system coupled to a Q-Exactive HF mass spectrometer (Thermo Scientific) operated as described previously (Hartmann E M, Armengaud J. N-terminomics and proteogenomics, getting off to a good start. Proteomics 14, 2637-2646 (2014)). Peptides were loaded on a reverse-phase PepMap 100 C18 μ-precolumn (5 μm, 100 Å, 300 μm i.d.×5 mm, Thermo Fisher), and then resolved on a nanoscale PepMap 100 C18 nanoLC column (3 μm, 100 Å, 75 μm i.d.×50 cm, Thermo Fisher) at a flow rate of 0.2 μL·min^−1 using a 90-min gradient (4% B for 0 to 3 min, 4-25% B from 3 to 78 min and 25-40% B from 78 to 93 min) with mobile phase A corresponding to 0.1% HCOOH/100% H2O and mobile phase B corresponding to 0.1% HCOOH/80% CH3CN/20% H2O). The mass spectrometer was operated in Top20 mode, with a scan range of MS acquisition from 350 to 1800 m/z and selection and fragmentation using a 10 s dynamic exclusion time for the 20 most abundant precursor ions. Only ion precursors with a 2+ or 3+ charge were selected for High-energy collisional dissociation (HCD) fragmentation performed at a normalized collision energy of 27 eV.
# MS/MS spectra were assigned using the Mascot Daemon software version 2.6.1 (Matrix Science) and the Mus musculus SwissProt database comprising 17,096 protein sequences. Peptide tolerance, MS/MS fragment tolerance, and the maximum of missed cleavages were set at 5 ppm, 0.02 D and 2, respectively. Carbamidomethylation of cysteine was considered as fixed modification. Oxidation of methionine was taken into account as variable modification. Peptides identified at a p-value≤0.05 in homology threshold mode and proteins identified with at least two distinct peptides were selected (false discovery rate below 1%).
# In-house script was constructed, using R programming language, to identify the differentially expressed proteins between the […] four different regions of the brain: cortex, cerebellum, hippocampus and brainstem. Initially, the proteomics data were normalized using the Variance Stabilizing Normalization (Motakis E S, Nason G P, Fryzlewicz P, Rutter G A. Variance stabilization and normalization for one-color microarray data using a data-driven multiscale approach. Bioinformatics 22, 2547-2553 (2006)). Proteins with at least 10 MS/MS spectra across all conditions were retained. Unsupervised variation filter was then applied to the proteomics data (Hamoudi R A, et al. Differential expression of NF-kappaB target genes in MALT lymphoma with and without chromosome translocation: insights into molecular mechanism. Leukemia 24, 1487-1497 (2010)) where any 8 samples with MS/MS detected protein were included. […]
structure (smiles),measurement,setting,value
"CCCCCCCCCCCCOC(=O)CN(C)C(=N)N [DCE, dodecyl creatine ester]","time observing the novel object, DCE-treated vs vehicle-treated CrT KO mice","[1]; ORT 24 h, DCE intranasal once a day 4 mg/g body weight, 30 days, N=8/group, one-way ANOVA p<0.01, Tukey p<0.05",more time
same,median time (novel object) of DCE-treated group as % of the WT median value,"[1]; ORT, DCE intranasal 4 mg/g once a day",96%
same,observation time of novel object compared with WT mice,"[1]; ORT, DCE intranasal 4 mg/g once a day, p=0.406",no difference
same,"object discrimination index / percent time with the novel object (FIG. 2A, 2B)","[1]; ORT, WT and DCE-treated, but not vehicle-treated KO mice",preference for the novel object
same,PLCB1 protein abundance by Western blot,"[2]; brain cortex, DCE-treated CrT KO mice, p=0.0004",significant increase; also recorded: significantly increased
same,IκBα protein level by Western blot,"[2]; brain cortex, DCE-treated CrT KO mice, p=0.008",reconstituted; also recorded: promotes
same,postsynaptic density protein PSD95 by Western blot,"[2]; brain cortex, p=0.0096",significantly upregulated
same,KIF1A by Western blot (overexpressed in vehicle CrT KO mice),[2]; cerebellum,rescued this overexpression
same,PLCB1 protein abundance by Western blot,"[2]; cerebellum, DCE-treated CrT KO mice",significantly increased
same,KIF1A by Western blot (overexpressed in vehicle CrT KO mice),[2]; cortex,rescued this overexpression
same,Pro-BDNF/BDNF level by Western blot,"[2]; cortex, p=0.0043",higher
same,KIF1A by Western blot (overexpressed in vehicle CrT KO mice),[2]; hippocampus,rescued this overexpression
same,PLCB1 protein abundance by Western blot,"[2]; hippocampus, DCE-treated CrT KO mice",significantly increased
same,spontaneous alternation performance in Y-maze vs vehicle CrT KO mice,[3]; DCE intranasal 4 mg/g once a day,higher; also recorded: significantly improved
same,alternation rate in Y-maze vs WT mice,"[3]; DCE-treated CrT KO mice, P=0.058",did not differ
same,median alternation rate in Y-maze,"[3]; DCE-treated CrT KO mice, vehicle 48%, WT 62%, P=0.058 vs WT",86%
same,memory abilities in MWM,[4],No positive effects
same,presynaptic IgSF8 protein abundance,[5]; brain cortex,significantly upregulated
same,"ANK1 abundance (downregulated in vehicle CrT KO mice), effect of DCE treatment",[5]; cerebellum,significantly rescued
same,"ANXA5 abundance (downregulated in vehicle CrT KO mice), effect of DCE treatment",[5]; cerebellum,significantly rescued
same,"FABP7 abundance (upregulated in CrT KO mice), DCE-treated CrT KO vs WT",[5]; cerebellum,unchanged
same,"LMNB1 abundance (upregulated in CrT KO mice), DCE-treated CrT KO vs WT",[5]; cerebellum,unchanged
same,"MeCP2 abundance (downregulated in vehicle CrT KO mice), effect of DCE treatment",[5]; cerebellum,significantly rescued
same,"PURB abundance (upregulated in CrT KO mice), DCE-treated CrT KO vs WT",[5]; cerebellum,unchanged
same,"DCLK1 abundance (upregulated in CrT KO mice), DCE-treated CrT KO vs WT",[5]; cortex,unchanged
same,"NCAM1 abundance (upregulated in CrT KO mice), DCE-treated CrT KO vs WT",[5]; cortex,unchanged
same,"PI4KA abundance (upregulated in CrT KO mice), DCE-treated CrT KO vs WT",[5]; cortex,unchanged
same,"PLCB1 abundance (downregulated in vehicle CrT KO mice), effect of DCE treatment",[5]; cortex,significantly rescued
same,"PURB abundance (upregulated in CrT KO mice), DCE-treated CrT KO vs WT",[5]; cortex,unchanged
same,"IGSF8 abundance (downregulated in vehicle CrT KO mice), effect of DCE treatment",[5]; hippocampus,significantly rescued
same,"KIF1A abundance (upregulated in CrT KO mice), DCE-treated CrT KO vs WT",[5]; hippocampus,unchanged
same,"L1CAM abundance (upregulated in CrT KO mice), DCE-treated CrT KO vs WT",[5]; hippocampus,unchanged
same,"NCAM1 abundance (upregulated in CrT KO mice), DCE-treated CrT KO vs WT",[5]; hippocampus,unchanged
